From patent publication US6914045B2, “Glycopeptide antibiotics” (Wyeth Holdings Corporation, priority 2001, dated 2005)
Values after ≈ are worked out from the molar mass of the structure shown.

Tests used:
Assay in all cases: in vitro antibacterial evaluation, MIC by broth dilution
Type in all cases: cell-based
Enterococcus sp. = settings: broth dilution, 18 hours at 35° C.
Method in brief: (§1)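 Step 1: dilute antibiotic across 64-0.06 μg/mL in Muller-Hinton II […]. Step 2: inoculate at 5×10^5 CFU/mL.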

Staphylococcus sp. = settings: broth dilution, 18 hours at 35° C.; for MIC Staphylococcus aureus (GC 1131): strain GC 1131
Method in brief: as §1

Streptococcus sp. = settings: broth dilution, 18 hours at 35° C.
Method in brief: as §1

Escherichia coli = system: Escherichia coli
Method in brief: as §1

SMILES: COc1cccc(C2OC3C(OC4C(CO)OC(Oc5ccc(CC6NC(=O)C(C(C)c7ccccc7)NC(=O)CNC(=O)C(CO)NC(=O)C(C(O)C7CNC(=N)N7C7OC(CO)C(O)C(O)C7O)NC(=O)C(C(O)C7CNC(=N)N7)NC6=O)cc5)C(O)C4O)OC(CO)C(O)C3O2)c1 (single isomer, unassigned) [Example 137b, Cyclo[glycyl-β-methylphenylalanyl-O-[4-O-[2,3-O-(3-methoxybenzylidene)hexopyranosyl]-hexopyranosyl]tyrosyl-3-(2-iminoimidazolidin-4-yl)seryl-3-(3-hexopyranosyl-2-iminoimidazolidin-4-yl)serylseryl]]
- MIC Enterococcus avium (GC 4558) (Enterococcus sp.; Enterococcus avium (GC 4558)): 32 µg/mL (≈ 22.6 µM)
- MIC Enterococcus faecalis (ATCC 29212) (Enterococcus sp.; Enterococcus faecalis (ATCC 29212)): 32 µg/mL (≈ 22.6 µM)
- MIC Enterococcus faecalis (GC 2242) (Enterococcus sp.; Enterococcus faecalis (GC 2242)): 32 µg/mL (≈ 22.6 µM)
- MIC Enterococcus faecalis (GC 2691) (Enterococcus sp.; Enterococcus faecalis (GC 2691)): 32 µg/mL (≈ 22.6 µM)
- MIC Enterococcus faecalis (GC 3059) (Enterococcus sp.; Enterococcus faecalis (GC 3059)): 64 µg/mL (≈ 45.3 µM)
- MIC Enterococcus faecalis (GC 4552) (Enterococcus sp.; Enterococcus faecalis (GC 4552)): 32 µg/mL (≈ 22.6 µM)
- MIC Enterococcus faecalis (GC 4553) (Enterococcus sp.; Enterococcus faecalis (GC 4553)): 32 µg/mL (≈ 22.6 µM)
- MIC Enterococcus faecalis (GC 4554) (Enterococcus sp.; Enterococcus faecalis (GC 4554)): 64 µg/mL (≈ 45.3 µM)
- MIC Enterococcus faecalis (GC 6189) (Enterococcus sp.; Enterococcus faecalis (GC 6189)): 32 µg/mL (≈ 22.6 µM)
- MIC Enterococcus faecium (GC 2243) (Enterococcus sp.; Enterococcus faecium (GC 2243)): 64 µg/mL (≈ 45.3 µM)
- MIC Enterococcus faecium (GC 4556) (Enterococcus sp.; Enterococcus faecium (GC 4556)): 32 µg/mL (≈ 22.6 µM)
- MIC Enterococcus faecium (GC 4557) (Enterococcus sp.; Enterococcus faecium (GC 4557)): 8 µg/mL (≈ 5.66 µM)
- MIC Enterococcus faecalis (ATCC 29212) (Enterococcus sp.; strain ATCC 29212): 32 µg/mL (≈ 22.6 µM)
- MIC Enterococcus faecalis (GC 2242) (Enterococcus sp.; strain GC 2242): 32 µg/mL (≈ 22.6 µM)
- MIC Enterococcus faecium (GC 2243) (Enterococcus sp.; strain GC 2243): 64 µg/mL (≈ 45.3 µM)
- MIC Enterococcus faecalis (GC 2691) (Enterococcus sp.; strain GC 2691): 32 µg/mL (≈ 22.6 µM)
- MIC Enterococcus faecalis (GC 3059) (Enterococcus sp.; strain GC 3059): 64 µg/mL (≈ 45.3 µM)
- MIC Enterococcus faecalis (GC 4552) (Enterococcus sp.; strain GC 4552): 32 µg/mL (≈ 22.6 µM)
- MIC Enterococcus faecalis (GC 4553) (Enterococcus sp.; strain GC 4553): 32 µg/mL (≈ 22.6 µM)
- MIC Enterococcus faecalis (GC 4554) (Enterococcus sp.; strain GC 4554): 64 µg/mL (≈ 45.3 µM)
- MIC Enterococcus faecium (GC 4556) (Enterococcus sp.; strain GC 4556): 32 µg/mL (≈ 22.6 µM)
- MIC Enterococcus faecium (GC 4557) (Enterococcus sp.; strain GC 4557): 8 µg/mL (≈ 5.66 µM)
- MIC Enterococcus avium (GC 4558) (Enterococcus sp.; strain GC 4558): 32 µg/mL (≈ 22.6 µM)
- MIC Enterococcus faecalis (GC 6189) (Enterococcus sp.; strain GC 6189): 32 µg/mL (≈ 22.6 µM)
- MIC Staphylococcus aureus (GC 1131) (Staphylococcus sp.; inoculum 5×10^5 CFU/mL): 16 µg/mL (≈ 11.3 µM)
- MIC Staphylococcus aureus (ATCC 29213) (Staphylococcus sp.; strain ATCC 29213): 16 µg/mL (≈ 11.3 µM)
- MIC Staphylococcus aureus (GC 1131) (Staphylococcus sp.): 16 µg/mL (≈ 11.3 µM)
- MIC Staphylococcus aureus (GC 3051) (Staphylococcus sp.; strain GC 3051): 16 µg/mL (≈ 11.3 µM)
- MIC Staphylococcus aureus (GC 3053) (Staphylococcus sp.; strain GC 3053): 16 µg/mL (≈ 11.3 µM)
- MIC Staphylococcus aureus (GC 4541) (Staphylococcus sp.; strain GC 4541): 8 µg/mL (≈ 5.66 µM)
- MIC Staphylococcus aureus (GC 4542) (Staphylococcus sp.; strain GC 4542): 16 µg/mL (≈ 11.3 µM)
- MIC Staphylococcus aureus-SMITH (GC 4543) (Staphylococcus sp.; strain GC 4543): 8 µg/mL (≈ 5.66 µM)
- MIC Staphylococcus aureus (GC 4544) (Staphylococcus sp.; strain GC 4544): 16 µg/mL (≈ 11.3 µM)
- MIC Staphylococcus aureus (GC 4545) (Staphylococcus sp.; strain GC 4545): 16 µg/mL (≈ 11.3 µM)
- MIC Staphylococcus haemolyticus (GC 4546) (Staphylococcus sp.; strain GC 4546): 8 µg/mL (≈ 5.66 µM)
- MIC Coagulase Negative Staphylococcus (GC 4547) (Staphylococcus sp.; strain GC 4547): 8 µg/mL (≈ 5.66 µM)
- MIC Coagulase Negative Staphylococcus (GC 4548) (Staphylococcus sp.; strain GC 4548): 4 µg/mL (≈ 2.83 µM)
- MIC Coagulase Negative Staphylococcus (GC 4549) (Staphylococcus sp.; strain GC 4549): 8 µg/mL (≈ 5.66 µM)
- MIC Coagulase Negative Staphylococcus (GC 4551) (Staphylococcus sp.; strain GC 4551): 8 µg/mL (≈ 5.66 µM)
- MIC Coagulase Negative Staphylococcus (GC 6257) (Staphylococcus sp.; strain GC 6257): 4 µg/mL (≈ 2.83 µM)
- MIC Staphylococcus aureus-SMITH (GC 4543) (Staphylococcus sp.; strain SMITH GC 4543): 8 µg/mL (≈ 5.66 µM)
- MIC Streptococcus agalactiae (GC 4564) (Streptococcus sp.; Streptococcus agalactiae (GC 4564)): 4 µg/mL (≈ 2.83 µM)
- MIC Streptococcus pneumoniae (ATCC 6301) (Streptococcus sp.; Streptococcus pneumoniae (ATCC 6301)): 2 µg/mL (≈ 1.42 µM)
- MIC Streptococcus pneumoniae (GC 1894) (Streptococcus sp.; Streptococcus pneumoniae (GC 1894)): 1 µg/mL (≈ 0.708 µM)
- MIC Streptococcus pneumoniae (GC 4565) (Streptococcus sp.; Streptococcus pneumoniae (GC 4565)): 2 µg/mL (≈ 1.42 µM)
- MIC Streptococcus pyogenes (GC 4563) (Streptococcus sp.; Streptococcus pyogenes (GC 4563)): 4 µg/mL (≈ 2.83 µM)
- MIC Streptococcus pneumoniae (ATCC 6301) (Streptococcus sp.; strain ATCC 6301): 2 µg/mL (≈ 1.42 µM)
- MIC Streptococcus pneumoniae (GC 1894) (Streptococcus sp.; strain GC 1894): 1 µg/mL (≈ 0.708 µM)
- MIC Streptococcus pyogenes (GC 4563) (Streptococcus sp.; strain GC 4563): 4 µg/mL (≈ 2.83 µM)
- MIC Streptococcus agalactiae (GC 4564) (Streptococcus sp.; strain GC 4564): 4 µg/mL (≈ 2.83 µM)
- MIC Streptococcus pneumoniae (GC 4565) (Streptococcus sp.; strain GC 4565): 2 µg/mL (≈ 1.42 µM)
- MIC Escherichia coli (ATCC 25922) (Escherichia coli; strain ATCC 25922, 18 hours at 35° C.): >64 µg/mL
- MIC Escherichia coli (GC 4559) (Escherichia coli; strain GC 4559, 18 hours at 35° C.): >64 µg/mL
- MIC Escherichia coli (GC 4560) (Escherichia coli; strain GC 4560, 18 hours at 35° C.): 4 µg/mL (≈ 2.83 µM)
